Results published in patent US9302999B2, “Substituted triazoles as herbicides” (E. I. DU PONT DE NEMOURS AND COMPANY, priority 2012, dated 2016).

Experiments:
Format in all cases: in vivo
[1] = tested on: bromegrass, downy (downy bromegrass, Bromus tectorum); experiment: Test C pre-/postemergence: bromegrass, downy
Source text: (§1) Seeds of plant species selected from blackgrass (Alopecurus myosuroides), bromegrass, downy (downy bromegrass, Bromus tectorum), foxtail, green (green foxtail, Setaria viridis), ryegrass, Italian (Italian ryegrass, Lolium multiflorum), winter wheat (Triticum aestivum), wild oat (Avena fatua), galium (catchweed bedstraw, Galium aparine), bermudagrass (Cynodon dactylon), surinam grass (Brachiaria decumbens), cocklebur (common cocklebur, Xanthium strumarium), corn (Zea mays), large crabgrass (Digitaria sanguinalis), woolly cupgrass (Eriochloa villosa), foxtail, giant (giant foxtail, Setaria faberii), goosegrass (Eleusine indica), johnsongrass (Sorghum halepense), kochia (Kochia scoparia), lambsquarters (Chenopodium album), morningglory (Ipomoea coccinea), nightshade (eastern black nightshade, Solanum ptycanthum), nutsedge, yellow (yellow nutsedge, Cyperus esculentus), pigweed (Amaranthus retroflexus), ragweed (common ragweed, Ambrosia elation), soybean (Glycine max), common (oilseed) sunflower (Helianthus annuus), Russian thistle (Salsola kali) and velvetleaf (Abutilon theophrasti) were planted into a blend of loam soil and sand and treated preemergence with test chemicals formulated in a non-phytotoxic solvent mixture which included a surfactant.
(§2) At the same time, plants selected from these crop and weed species and also barley (winter barley, Hordeum vulgare), canarygrass (Phalaris minor), chickweed (common chickweed, Stellaria media) windgrass (Apera spica-venti) and deadnettle (henbit deadnettle, Lamium amplexicaule) were planted in pots containing Redi-Earth® planting medium (Scotts Company, 14111 Scottslawn Road, Marysville, Ohio 43041) comprising spaghnum peat moss, vermiculite, wetting agent and starter nutrients and treated with postemergence applications of test chemicals formulated in the same manner. Plants ranged in height from 2 to 18 cm (1- to 4-leaf stage) for postemergence treatments.
(§3) Treated plants and controls were maintained in a greenhouse for 13 to 15 days, after which time all species were compared to controls and visually evaluated. Plant response ratings, summarized in Table C, are based on a scale of 0 to 100 where 0 is no effect and 100 is complete control. A dash (-) response means no test result.

[2] = tested on: bermudagrass (Cynodon dactylon); experiment: Test C pre-/postemergence: bermudagrass
Summary of the method: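 Preemergence on seeds in loam/sand, postemergence on 2–18 cm (1–4-leaf) plants in peat-based medium; compounds in non-phytotoxic solvent with surfactant. After 13–15 days in greenhouse, visual rating versus controls, 0 (no effect) to 100 (complete control).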

[3] = tested on: common (oilseed) sunflower (Helianthus annuus); experiment: Test C pre-/postemergence: sunflower; conditions: Preemergence
Source text: as §1, §2, §3

[4] = tested on: canarygrass (Phalaris minor); experiment: Test D pre-/postemergence: canarygrass
Source text: (§4) Seeds of plant species selected from bluegrass (annual bluegrass, Poa annua), blackgrass (Alopecurus myosuroides), canarygrass (Phalaris minor), chickweed (common chickweed, Stellaria media), galium (catchweed bedstraw, Galium aparine), bromegrass, downy (downy bromegrass, Bromus tectorum), field poppy (Papaver rhoeas), field violet (Viola arvensis), foxtail, green (green foxtail, Setaria viridis), deadnettle (henbit deadnettle, Lamium amplexicaule), ryegrass, Italian (Italian ryegrass, Lolium multiflorum), kochia (Kochia scoparia), lambsquarters (Chenopodium album), oilseed rape (Brassica napus), pigweed (Amaranthus retroflexus), Russian thistle (Salsola iberica), chamomile (scentless chamomile, Matricaria inodora), speedwell (bird's-eye speedwell, Veronica persica), barley, spring (spring barley, Hordeum vulgare), wheat, spring (spring wheat, Triticum aestivum), buckwheat, wild (wild buckwheat, Polygonum convolvulus), mustard, wild (wild mustard, Sinapis arvensis), oat, wild (wild oat, Avena fatua), radish, wild (wild radish, Raphanus raphanistrum), windgrass (Apera spica-venti), barley, winter (winter barley, Hordeum vulgare), and wheat, winter (winter wheat, Triticum aestivum) were planted into a silt loam soil and treated preemergence with test chemicals formulated in a non-phytotoxic solvent mixture which included a surfactant. At the same time, these same crop and weed species were planted in pots containing the planting medium comprising spaghnum peat moss, vermiculite, wetting agent and starter nutrients and treated with postemergence applications of the test chemicals formulated in the same manner. Plants ranged in height from 2 to 18 cm (1- to 4-leaf stage).
(§5) Treated plants and controls were maintained in a controlled growth environment for 14 to 21 days after which time all species were compared to controls and visually evaluated. Plant response ratings, summarized in Table D, are based on a scale of 0 to 100 where 0 is no effect and 100 is complete control. A dash (-) response means no test result.

[5] = tested on: deadnettle (henbit deadnettle, Lamium amplexicaule); experiment: Test D pre-/postemergence: deadnettle
Source text: as §4, §5

[6] = tested on: lambsquarters (Chenopodium album); experiment: Test D pre-/postemergence: lambsquarters
Source text: as §4, §5

[7] = tested on: oat, wild (wild oat, Avena fatua); experiment: Test D pre-/postemergence: oat, wild
Source text: as §4, §5

[8] = tested on: barnyardgrass (Echinochloa crus-galli); experiment: Test B flooded paddy: barnyardgrass; conditions: Flood; 250 g ai/ha; applied to paddy water at 2-leaf stage; visually evaluated after 13 to 15 days
Summary of the method: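 Paddy-water application: seedlings at 2-leaf stage, flood depth 3 cm maintained for the test duration. Evaluation after 13–15 days in the greenhouse by eye relative to controls; 0–100 scale.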

[9] = Postemergence, 31 g ai/ha, scale 0 to 100 (0 no effect, 100 complete control)
[10] = Postemergence, 62 g ai/ha, scale 0 to 100 (0 no effect, 100 complete control)
[11] = Postemergence, 125 g ai/ha, scale 0 to 100, 0 no effect, 100 complete control
[12] = Postemergence, 250 g ai/ha, scale 0 to 100
[13] = Preemergence, 31 g ai/ha, scale of 0 to 100, 0 is no effect, 100 is complete control
[14] = Preemergence, 62 g ai/ha, scale 0 to 100, 0 no effect, 100 complete control
[15] = Preemergence, 125 g ai/ha, scale 0 to 100, 0 no effect, 100 complete control
[16] = Preemergence, 250 g ai/ha, scale 0 to 100, 0 no effect, 100 complete control
[17] = 31 g ai/ha, scale of 0 to 100, 0 is no effect, 100 is complete control
[18] = 62 g ai/ha, scale of 0 to 100, 0 is no effect, 100 is complete control
[19] = 125 g ai/ha, scale 0 to 100, 0 no effect, 100 complete control
[20] = 250 g ai/ha, scale 0 to 100, 0 no effect, 100 complete control
[21] = Postemergence, 250 g ai/ha, scale 0 to 100 (0 no effect, 100 complete control)
[22] = Postemergence, 16 g ai/ha, scale 0 to 100
[23] = Preemergence, 16 g ai/ha, scale 0 to 100 (0 no effect, 100 complete control)
[24] = Preemergence, 31 g ai/ha, scale 0 to 100 (0 no effect, 100 complete control)
[25] = Preemergence, 62 g ai/ha, scale 0 to 100
[26] = Preemergence, 125 g ai/ha, scale 0 to 100
[27] = Preemergence, 250 g ai/ha, scale 0 to 100
[28] = Preemergence, 62 g ai/ha, scale of 0 to 100, 0 is no effect, 100 is complete control

## Cc1nn(-c2ccc(C(F)(F)F)cc2)nc1Cc1ccnc(C(F)(F)F)c1 [Compound 47, 4-[[5-methyl-2-[4-(trifluoromethyl)phenyl]-2H-1,2,3-triazol-4-yl]methyl]-2-(trifluoromethyl)pyridine]
[1]; [9]
  Plant response rating, Bromegrass, Downy: 10
[1]; [10]
  Plant response rating, Bromegrass, Downy: 30
[1]; [11]
  Plant response rating, Bromegrass, Downy: 50
[1]; [12]
  Plant response rating, Bromegrass, Downy: 65
[1]; [13]
  Plant response rating, Bromegrass, Downy: 15
[1]; [14]
  Plant response rating, Bromegrass, Downy: 40
[1]; [15]
  Plant response rating, Bromegrass, Downy: 90
[1]; [16]
  Plant response rating, Bromegrass, Downy: 100
[2]; [9]
  Plant response rating, Bermudagrass: 10
[2]; [10]
  Plant response rating, Bermudagrass: 20
[2]; [11]
  Plant response rating, Bermudagrass: 55
[2]; [12]
  Plant response rating, Bermudagrass: 75
[2]; [13]
  Plant response rating, Bermudagrass: 100
[2]; [14]
  Plant response rating, Bermudagrass: 100
[2]; [15]
  Plant response rating, Bermudagrass: 100
[2]; [16]
  Plant response rating, Bermudagrass: 100
[3]; [17]
  Plant response rating, Sunflower: 0
[3]; [18]
  Plant response rating, Sunflower: 0
[3]; [19]
  Plant response rating, Sunflower: 0
[3]; [20]
  Plant response rating, Sunflower: 10

## Cc1nn(-c2ccc(F)cc2)nc1Oc1ccnc(C(F)(F)F)c1 [Compound 129, 4-[[2-(4-fluorophenyl)-5-methyl-2H-1,2,3-triazol-4-yl]oxy]-2-(trifluoromethyl)pyridine]
[1]; [9]
  Plant response rating, Bromegrass, Downy: 35
[1]; [10]
  Plant response rating, Bromegrass, Downy: 35
[1]; [11]
  Plant response rating, Bromegrass, Downy: 40
[1]; [12]
  Plant response rating, Bromegrass, Downy: 40
[1]; [13]
  Plant response rating, Bromegrass, Downy: 30
[1]; [14]
  Plant response rating, Bromegrass, Downy: 80
[1]; [15]
  Plant response rating, Bromegrass, Downy: 95
[1]; [16]
  Plant response rating, Bromegrass, Downy: 100
[2]; [9]
  Plant response rating, Bermudagrass: 40
[2]; [10]
  Plant response rating, Bermudagrass: 45
[2]; [11]
  Plant response rating, Bermudagrass: 60
[2]; [12]
  Plant response rating, Bermudagrass: 70
[2]; [13]
  Plant response rating, Bermudagrass: 98
[2]; [14]
  Plant response rating, Bermudagrass: 98
[2]; [15]
  Plant response rating, Bermudagrass: 98
[2]; [16]
  Plant response rating, Bermudagrass: 98
[3]; [17]
  Plant response rating, Sunflower: 0
[3]; [18]
  Plant response rating, Sunflower: 0
[3]; [19]
  Plant response rating, Sunflower: 0
[3]; [20]
  Plant response rating, Sunflower: 0
[4]; [9]
  Plant response rating: Canarygrass: 10
[4]; [10]
  Plant response rating: Canarygrass: 15
[4]; [11]
  Plant response rating: Canarygrass: 70
[4]; [21]
  Plant response rating: Canarygrass: 80
[4]; [22]
  Plant response rating, Canarygrass: 10
[4]; [23]
  Plant response rating, Canarygrass: 0
[4]; [24]
  Plant response rating, Canarygrass: 15
[4]; [25]
  Plant response rating, Canarygrass: 100
[4]; [26]
  Plant response rating, Canarygrass: 100
[4]; [27]
  Plant response rating, Canarygrass: 100
[5]; [9]
  Plant response rating: Deadnettle: 75
[5]; [10]
  Plant response rating: Deadnettle: 80
[5]; [11]
  Plant response rating: Deadnettle: 98
[5]; [21]
  Plant response rating: Deadnettle: 100
[5]; [22]
  Plant response rating, Deadnettle: 60
[5]; [23]
  Plant response rating, Deadnettle: 0
[5]; [24]
  Plant response rating, Deadnettle: 10
[5]; [25]
  Plant response rating, Deadnettle: 100
[5]; [26]
  Plant response rating, Deadnettle: 100
[5]; [27]
  Plant response rating, Deadnettle: 100
[6]; [9]
  Plant response rating: Lambsquarters: 85
[6]; [10]
  Plant response rating: Lambsquarters: 95
[6]; [11]
  Plant response rating: Lambsquarters: 100
[6]; [21]
  Plant response rating: Lambsquarters: 100
[6]; [22]
  Plant response rating, Lambsquarters: 85
[6]; [23]
  Plant response rating, Lambsquarters: 0
[6]; [24]
  Plant response rating, Lambsquarters: 80
[6]; [25]
  Plant response rating, Lambsquarters: 90
[6]; [26]
  Plant response rating, Lambsquarters: 90
[6]; [27]
  Plant response rating, Lambsquarters: 100
[7]; [9]
  Plant response rating: Oat, Wild: 10
[7]; [10]
  Plant response rating: Oat, Wild: 10
[7]; [11]
  Plant response rating: Oat, Wild: 20
[7]; [21]
  Plant response rating: Oat, Wild: 25
[7]; [22]
  Plant response rating, Oat, Wild: 10
[7]; [23]
  Plant response rating, Oat, Wild: 0
[7]; [24]
  Plant response rating, Oat, Wild: 0
[7]; [25]
  Plant response rating, Oat, Wild: 5
[7]; [26]
  Plant response rating, Oat, Wild: 55
[7]; [27]
  Plant response rating, Oat, Wild: 100

## Fc1ccc(-n2nc(Cc3ccnc(C(F)(F)F)c3)c(OCC(F)(F)F)n2)cc1 [Compound 142]
[8]
  Plant response rating, Barnyardgrass (0 to 100 scale, 0 is no effect, 100 is complete control): 70
[1]; [9]
  Plant response rating, Bromegrass, Downy: 25
[1]; [10]
  Plant response rating, Bromegrass, Downy: 45
[1]; [11]
  Plant response rating, Bromegrass, Downy: 45
[1]; [12]
  Plant response rating, Bromegrass, Downy: 50
[1]; [13]
  Plant response rating, Bromegrass, Downy: 20
[1]; [28]
  Plant response rating, Bromegrass, Downy: 60
[1]; [15]
  Plant response rating, Bromegrass, Downy: 90
[1]; [16]
  Plant response rating, Bromegrass, Downy: 90
[2]; [9]
  Plant response rating, Bermudagrass: 15
[2]; [10]
  Plant response rating, Bermudagrass: 70
[2]; [11]
  Plant response rating, Bermudagrass: 75
[2]; [12]
  Plant response rating, Bermudagrass: 85
[2]; [13]
  Plant response rating, Bermudagrass: 98
[2]; [28]
  Plant response rating, Bermudagrass: 98
[2]; [15]
  Plant response rating, Bermudagrass: 98
[2]; [16]
  Plant response rating, Bermudagrass: 98
[3]; [17]
  Plant response rating, Sunflower: 15
[3]; [19]
  Plant response rating, Sunflower: 15
[3]; [20]
  Plant response rating, Sunflower: 25
